Reference: patent US5373089A, “Oxytocin antagonist” (Northwestern University, priority 1993, dated 1994)
Starred links: 1 amine or outer side, 2 acyl side, 3 side chain; linkers in the order of their positions; H or OH if unused. Positions of bridges follow the written chain, without caps; N, C: chain ends. Non-standard residues stand in square brackets, D forms with d. Residues, ends and D or L forms follow the SMILES beside them. X1 = O=C(CC1(S[*:2])CCCCC1)[*:1]; Pen = CC(C)(S)[C@H](N)C(=O)O; Orn = NCCC[C@H](N)C(=O)O; Mpa = O=C(O)CCS

Columns and labels:
RAT OXYTOCIN RECEPTOR = molecular target: T1, RAT OXYTOCIN RECEPTOR (Rattus norvegicus, UniProt P70536); experiment: Oxytocin receptor assay, pregnant rat uterus (P21) membranes, 3H-OT competition; type: binding
T1 construct: from tissue; host or cells: uterus of day-21 pregnant Holtzman rats, sucrose-gradient membrane fraction
T1 sequence (P70536 1-388): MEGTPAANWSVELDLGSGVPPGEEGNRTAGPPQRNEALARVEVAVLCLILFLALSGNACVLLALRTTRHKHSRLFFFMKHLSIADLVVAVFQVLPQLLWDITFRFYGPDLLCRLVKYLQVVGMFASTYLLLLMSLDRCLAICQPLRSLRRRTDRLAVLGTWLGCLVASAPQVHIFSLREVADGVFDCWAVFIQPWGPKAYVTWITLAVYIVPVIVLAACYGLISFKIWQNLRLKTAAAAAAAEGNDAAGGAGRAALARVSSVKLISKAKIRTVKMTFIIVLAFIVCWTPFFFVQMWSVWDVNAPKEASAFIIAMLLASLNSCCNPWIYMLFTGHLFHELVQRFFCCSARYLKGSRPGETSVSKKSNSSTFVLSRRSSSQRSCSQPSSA
Experimental: Uterine tissue was removed on day 21 of pregnancy (delivery=Days 211/2 to 221/2) from Holtzman rats. The tissue was emptied of its contents, rinsed in ice cold buffer, cut into small pieces and frozen at -70° C. until homogenization.
(§1) Oxytocin receptors (OTrs) reside on the cell membrane and are present at high concentrations at the end of pregnancy in uterine tissue. Frozen tissue is homogenized in Tris buffer, the homogenate filtered, and the filtrate centrifuged at 1000 g for 15 minutes at 4° C. The supernatant is centrifuged at 40,000 g for 30 minutes and the pellet containing the cell membranes resuspended in 10% sucrose. Density gradient ultracentrifugation is then performed by placing the 10 % sucrose suspension on top of 35% sucrose and centrifuging for 30 minutes in a swing bucket rotor at 105,000 g. The membranes at the interface of the 10%/35% sucrose are removed and resuspended in Tris buffer containing EDTA for 30 minutes. This procedure removes divalent cation and results in dissociation of any endogenously bound OT to the receptor. This mixture is then centrifuged for 15 minutes at 100,000 g and the pellet containing the membrane OTrs resuspended in Tris, PMSF, Mg^++, buffer by sonication.
(§2) The binding assay consist of 0.1 ml of 20,000 cmp of tritium labeled OT (New England Nuclear, […]), 0.1 ml of OT antagonist added at increasing concentration, 0.25 ml of buffer and 0.05 ml of membrane (70-150 ug protein). A nonspecific tube has 100× of cold OTA added to it. The incubation is for 30 minutes at 30 ° C. The membrane is pelleted by centrifugation in ultraclear mini tubes (5×41 mm) for 30 minutes at 105,000 g. The resulting pellet containing the bound ^3 H-OT is dissolved in 0.1N NaOH at 45 ° C. for 30 minutes and this mixture is then placed in liquid scintillation counting fluid and counted for dpms in a scintillation counter.
(§3) The data is analyzed by nonlinear curve fitting methods using McPherson's EBDA (J Pharmacol Methods 14:213-228, 1985) and Munson and Rodbard's LIGAND (Anal Biochem 107:220-239, 1980) program for saturation and competition analysis for determining Kds and Kis.

oxytocin = settings: reported in the cited literature; cited from earlier work
HUMAN OXYTOCIN RECEPTOR = molecular target: T2, HUMAN OXYTOCIN RECEPTOR (Homo sapiens, UniProt P30559); experiment: Oxytocin receptor assay, human myometrial tissue membranes, 3H-OT competition; type: binding
T2 construct: Oxytocin receptors (OTrs) reside on the cell membrane and are present at high concentrations at the end of pregnancy in uterine tissue; from tissue; host or cells: human myometrium from cesarean section patients, sucrose-gradient membrane fraction
T2 sequence (P30559 1-389): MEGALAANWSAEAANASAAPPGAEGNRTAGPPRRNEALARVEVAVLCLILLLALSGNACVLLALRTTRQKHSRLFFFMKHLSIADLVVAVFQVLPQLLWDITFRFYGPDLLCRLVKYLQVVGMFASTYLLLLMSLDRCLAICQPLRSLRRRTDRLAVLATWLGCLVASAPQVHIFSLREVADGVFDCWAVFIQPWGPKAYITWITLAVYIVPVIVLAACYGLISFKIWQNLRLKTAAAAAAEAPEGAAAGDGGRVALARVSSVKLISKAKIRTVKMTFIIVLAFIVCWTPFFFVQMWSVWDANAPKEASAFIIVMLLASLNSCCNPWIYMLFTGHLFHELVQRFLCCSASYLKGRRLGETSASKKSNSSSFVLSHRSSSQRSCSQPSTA
Experimental: Human myometrial tissue was collected from patients at the time of cesarian section after informed consent. The tissue was rinsed in cold buffer, cut into small pieces and frozen at -70° C. until homogenization.
as §1, §2, §3

ADH = ADH bioassay (alteration in urine output due to ADH); type: in vivo; settings: in vivo
Experimental: The above compound was also tested for antagonism to vasopressin. Anti-ADH activity can be determined by measuring the alteration in urine output due to ADH in the presence and absence of the antagonist. A suitable ADH-assay is described in Sawyer, et al., Endocrinology, 63:694 (1958). […] The ratio of oxytocin antagonism to ADH antagonism was very high, viz. over 1, 866, as compared with 200 for the compositions disclosed in the parent applications.
The anti-ADH activity is measured by the alteration in urine […] in the presence and absence of the antagonist to determine the specificity of the antagonist. The anti-ADH assay is described in Sawyer, et al., Endocrinology, 63:694 (1958).

ESTROUS RAT UTERUS = experiment: Oxytocic bioassay (isolated rat uterus, integrated contraction response to oxytocin); type: cell-based
Text: The protocol used for the oxytocin bioassay procedure is derived from procedures described in a paper by Sawyer, et al., Endocrinology, 106:81 (1980), which in turn was based on reports of Munsick, Brit. J. Pharmacol., 3:328 (1960), and Holton, Brit. J. Pharmacol., 3:328 (1948). The assay calculations for the pA2 estimates are described by Schild, British J. Pharmacology, 2:189 (1947). The major difference in the present procedure from those reported by others in the field is that the area under the contraction is integrated where most other techniques calculate the amplitude. Integration provides much more consistent and reliable results although the pA2 estimates are approximately an order of magnitude lower than those reported using amplitude of the contraction as the endpoint.
1. Animals--a 1.5 cm piece of uterus from a virgin rat (Holtzman) in natural estrus is used for the assay.
2. Buffer/Assay Bath--The buffer used is Munsicks. […] The buffer is gassed continuously with 95% oxygen; 5% carbon dioxide giving a pH of 7.4. The temperature of the assay bath is 37° C. A 10 ml assay bath is used that contains a water jacket for maintaining the temperature and inlet and outlet spikets for adding and removing buffer.
3. Polygraph/transducer--The piece of uterine tissue used for the assay is anchored at one end and connected to a Statham Strain Gauge Force Transducer at the other end which in turn is attached to a Grass Polygraph Model 79 for monitoring the contractions.
4. Assay Protocol. (a) The tissue is equilibrated in the assay bath for one hour with washing with new buffer every fifteen minutes. One gram of tension is kept on the tissue at all times.
(b) The tissue is stimulated initially with oxytocin at 10 nM to "acclimate" the tissue and with […] KCl to determine the maximum contractile response.
(d) The tissue is exposed to oxytocin (Calbiochemical, San Diego, Calif.) for one minute and washed out. There is a three minute interval before addition of the next dose of the agonist or antagonist. When the antagonist is tested, it is given five minutes before the agonist. The agonist is given for one minute. All responses are integrated using a 7P10 Grass Integrator. This is the major difference between the present protocol and others in the literature which usually measure amplitude of the contractions as the response. A single concentration of oxytocin, equal to 80% of the maximum response, is used to test the antagonist. […] This is repeated three times for each dose of antagonist for a three point assay.
(e) Calculations for pA2 : The dose-response (DR) ratios are calculated for antagonist and a Schild's Plot is performed by plotting the Log (DR-1) vs. Log of antagonist concentration. The line plotted is calculated by least squares regression analysis. The pA2 is the concentration of antagonist at the point where the regression line crosses the 0 point of the Log (DR-1) ordinate. The pA2 is the negative Log of the concentration of antagonist that will reduce the response to the agonist by one-half.
The protocol used for the oxytocin bioassay procedure is derived from procedures described in a paper by Sawyer, et al., Endocrinology, 106:81 (1980), which in turn was based on reports of Munsick, Brit. J. Pharmacol., 3:328 (1960), and Holton, Brit. J. Pharmacol., 3:328 (1948). The assay calculations for the pA2 estimates are described by Schild, Brit. J. Pharmacol. (1947). The major difference in procedure from those previously reported was the integration of the area under the contraction instead of merely calculating the amplitude. Integration provides more consistent and reliable results, although the pA2 estimates are about an order of magnitude lower than those reported using amplitude of the contraction as the endpoint.
A 1.5 cm piece of uterus from a virgin rat (Holtzman) in natural estrus is used for the assay.
The buffer used is Munsick's. […]

Compound: CC[C@H](C)[C@@H]1NC(=O)[C@@H](Cc2c[nH]c3ccccc23)NC(=O)CC2(CCCCC2)SSC(C)(C)[C@@H](C(=O)N2CCC[C@H]2C(=O)N[C@@H](CCCNC(=N)N)C(=O)NCC(N)=O)NC(=O)[C@H](CC(N)=O)NC(=O)[C@H](CCC(N)=O)NC1=O [Compound C2, [Pmp^1, DTrp^2, Pen^6, Arg^8] oxytocin] ([dW]IQN[Pen]PRG-NH2; linker N-5 via X1)
- Kd (RAT OXYTOCIN RECEPTOR): 0.87 nM

Compound: (1-deaminopenicillamine, 2-0-methyltyrosine) oxytocin
- pA2 (anti-oxytocic, literature) (oxytocin): 7.8

Compound: 1deamino[D-Tyr(OEt)^2, Thr^4, Orn^8 ] vasopressin
- pA2 (anti-oxytocic, literature) (oxytocin): 8.3

Compound: CC[C@H](C)[C@@H]1NC(=O)[C@@H](Cc2c[nH]c3ccccc23)NC(=O)CC2(CCCCC2)SSC[C@@H](C(=O)N2CCC[C@H]2C(=O)N[C@@H](CCCNC(=N)N)C(=O)NCC(N)=O)NC(=O)[C@H](CC(N)=O)NC(=O)[C@H](CCC(N)=O)NC1=O [Compound C, [Pmp^1, D-Trp^2, Arg^8] oxytocin] ([dW]IQNCPRG-NH2; linker N-5 via X1)
- Kd (HUMAN OXYTOCIN RECEPTOR): 5.49 nM
- Kd (RAT OXYTOCIN RECEPTOR): 4.93 nM
- ADH Bioassay pA2 (ADH): 5.51

Compound: CC[C@H](C)[C@@H]1NC(=O)[C@H](Cc2ccccc2)NC(=O)[C@@H](Cc2ccccc2)NC(=O)CC2(CCCCC2)SSC[C@@H](C(=O)N2CCC[C@H]2C(=O)N[C@@H](CCCNC(=N)N)C(=O)NCC(N)=O)NC(=O)[C@H](CC(N)=O)NC1=O [Compound A, [Pmp^1,D-Phe^2,Phe^3,Ile^4,Arg^8] oxytocin, reference compound] ([dF]FINCPRG-NH2; linker N-5 via X1)
- Oxytocic Bioassay pA2 (ESTROUS RAT UTERUS; virgin rat uterus in natural estrus, Munsick's buffer 0.5 mM Mg++, integrated contraction area): 7.35
- ADH Bioassay pA2 (ADH): 7.66

Compound: 1-deamino, ethyloxytocin
- pA2 (anti-oxytocic, literature) (oxytocin): 7.2

Compound: CCOc1ccc(C[C@H]2NC(=O)CCSSC[C@@H](C(=O)N3CCC[C@H]3C(=O)N[C@@H](CCCN)C(=O)NCC(N)=O)NC(=O)[C@H](CC(N)=O)NC(=O)[C@H]([C@@H](C)O)NC(=O)[C@H]([C@@H](C)CC)NC2=O)cc1 [E, [Mpa^1,DTyr(Et)^2,Thr^4, Orn^8] oxytocin, reference compound] ([Mpa][dY](Et)ITNCP[Orn]G-NH2; disulfide 1-6)
- Kd (HUMAN OXYTOCIN RECEPTOR): 18.9 nM
- hOTR (OTA/ANTI) (HUMAN OXYTOCIN RECEPTOR; ratio of binding affinity to ANTAG I, human oxytocin receptor): 1.0
- Kd (RAT OXYTOCIN RECEPTOR): 19.6 nM
- rOTr (OTA/ANTI) (RAT OXYTOCIN RECEPTOR; ratio of binding affinity to ANTAG I, rat oxytocin receptor): 0.4
- OXYTOCIC BIOASSAY ED50 (ESTROUS RAT UTERUS; estrous rat uterus, Table 3): 102.33 nM
- BIOASSAY ED50 (ESTROUS RAT UTERUS; estrous rat uterus, Table 4): 102.3 nM
- BIOASSAY (ANTI/OTA) (ESTROUS RAT UTERUS; ratio to ANTAG I, rat oxytocic bioassay): 0.3
